Assay results published in patent US7767659B2, “Synthesis of naturally occurring ecteinascidins and related compounds” (Pharma Mar, S.A., priority 2002, dated 2010).
Where two headings read alike, the source gives them in different places.

How the values were obtained:
[1] = system: LoVo; assay: cells; conditions: Homo sapiens, LoVo, 48 h
Procedure, shortened: (§1)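 Colorimetric SRB read (490 nm) on triplicate wells after 48 h at 37 °C, 5% CO2. Dose range 10 to 10^−8 μg/ml; 5×10^3 cells/well pre-attached 18 h.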

[2] = system: A-549; assay: cells; conditions: Homo sapiens, A549, 48 h
Procedure, shortened: as §1

[3] = system: HT-29; assay: cells; conditions: Homo sapiens, HT-29, 48 h
Procedure, shortened: as §1

[4] = system: IGROV-1; assay: Inhibition of cells growth by colorimetric assay (SRB); conditions: Homo sapiens, IGROV-1, 48 h
Procedure, shortened: as §1

[5] = system: SK-OV-3; assay: as above; conditions: for GI50 / CC50: Homo sapiens, SK-OV-3, 48 h; for GI50: read-out: SK-OV3 GI50; for CC50: read-out: SK-OV3 LC50; for SK-OV3 TGI: SRB, 48 hours exposure
Procedure, shortened: as §1

[6] = system: LNCaP; assay: as above; conditions: Homo sapiens, LNCaP, 48 h
Procedure, shortened: as §1

[7] = system: LoVo-Dox; assay: as above; conditions: Homo sapiens, 48 h
Procedure, shortened: as §1

[8] = system: IGROV-ET; assay: as above; conditions: Homo sapiens, 48 h
Procedure, shortened: as §1

[9] = system: PANC-1; assay: as above; conditions: Homo sapiens, PANC-1, 48 h
Procedure, shortened: as §1

[10] = system: DU-145; assay: as above; conditions: Homo sapiens, DU-145, 48 h
Procedure, shortened: as §1

[11] = system: K-562; assay: as above; conditions: Homo sapiens, K562, 48 h
Procedure, shortened: as §1

[12] = system: SK-MEL-28; assay: as above; conditions: Homo sapiens, SK-MEL-28, 48 h
Procedure, shortened: as §1

[13] = system: HeLa; assay: as above; conditions: Homo sapiens, HeLa, 48 h
Procedure, shortened: as §1

[14] = system: HeLa-APL; assay: as above; conditions: Homo sapiens, 48 h
Procedure, shortened: as §1

[15] = system: SK-BR-3; assay: as above; conditions: Homo sapiens, SK-BR-3, 48 h
Procedure, shortened: as §1

Work on `COc1cc2c(cc1O)CCN[C@]21CS[C@@H]2c3c(OC(C)=O)c(C)c4c(c3[C@H](CNC1=O)N1C2[C@H]2c3c(cc(C)c(OC)c3O)C[C@@H]([C@@H]1C#N)N2C)OCO4` (stereo partly drawn) [compound 76] yielded a GI50 ([1]; read-out: LOVO GI50) of 274 nM, a CC50 ([1]; read-out: LOVO LC50) of 1300 nM and an IC (TGI) ([1]; read-out: LOVO TGI) of 683 nM. The GI50 ([2]; read-out: A549 GI50) was 413 nM, the CC50 ([2]; read-out: A549 LC50) was 4650 nM and the IC (TGI) ([2]; read-out: A549 TGI) was 840 nM. For the same compound, the GI50 ([3]; read-out: HT29 GI50) was 627 nM, the CC50 ([3]; read-out: HT29 LC50) was 13000 nM and the IC (TGI) ([3]; read-out: HT29 TGI) was 1300 nM. It also gave a GI50 ([4]; read-out: IGROV GI50) of 197 nM, a CC50 ([4]; read-out: IGROV LC50) of 5250 nM and an IC (TGI) ([4]; read-out: IGROV TGI) of 648 nM. For the same compound, the GI50 [5] was 547 nM, the CC50 [5] was 13000 nM and the “SK-OV3 TGI” value [5] was 1.90E−06 Molar. It also gave a GI50 ([6]; read-out: LNCAP GI50) of 46.6 nM, a CC50 ([6]; read-out: LNCAP LC50) of 257 nM and an IC (TGI) ([6]; read-out: LNCAP TGI) of 80.7 nM. It also gave a GI50 ([7]; read-out: LOVO-DOX GI50) of 2660 nM, a CC50 ([7]; read-out: LOVO-DOX LC50) of 13000 nM and an IC (TGI) ([7]; read-out: LOVO-DOX TGI) of 8130 nM. It also gave a GI50 ([8]; read-out: IGROV-ET GI50) of 513 nM, a CC50 ([8]; read-out: IGROV-ET LC50) of 1300 nM and an IC (TGI) ([8]; read-out: IGROV-ET TGI) of 924 nM. The GI50 ([9]; read-out: PANC-1 GI50) was 695 nM, the CC50 ([9]; read-out: PANC-1 LC50) was 13000 nM and the IC (TGI) ([9]; read-out: PANC-1 TGI) was 4970 nM. For the same compound, the GI50 ([10]; read-out: DU145 GI50) was 492 nM, the CC50 ([10]; read-out: DU145 LC50) was 13000 nM and the IC (TGI) ([10]; read-out: DU145 TGI) was 1340 nM. For the same compound, the GI50 ([11]; read-out: K562 GI50) was 26.9 nM, the CC50 ([11]; read-out: K562 LC50) was 13000 nM and the IC (TGI) ([11]; read-out: K562 TGI) was 130 nM. The GI50 ([12]; read-out: MEL-28 GI50) was 238 nM, the CC50 ([12]; read-out: MEL-28 LC50) was 1270 nM and the IC (TGI) ([12]; read-out: MEL-28 TGI) was 549 nM.
`COc1cc2c(cc1O)CCN[C@]21CS[C@@H]2c3c(OC(C)=O)c(C)c4c(c3[C@H](CNC1=O)N1C2[C@H]2c3c(cc(C)c(OC)c3O)CC([C@@H]1O)N2C)OCO4` (stereo partly drawn) [compound 77] gave a GI50 ([1]; read-out: LOVO GI50) of 241 nM, a CC50 ([1]; read-out: LOVO LC50) of 13100 nM and an IC (TGI) ([1]; read-out: LOVO TGI) of 917 nM. The GI50 ([2]; read-out: A549 GI50) was 301 nM, the CC50 ([2]; read-out: A549 LC50) was 3650 nM and the IC (TGI) ([2]; read-out: A549 TGI) was 728 nM. It also gave a GI50 ([3]; read-out: HT29 GI50) of 189 nM, a CC50 ([3]; read-out: HT29 LC50) of 13100 nM and an IC (TGI) ([3]; read-out: HT29 TGI) of 908 nM. It also gave a GI50 ([4]; read-out: IGROV GI50) of 58 nM, a CC50 ([4]; read-out: IGROV LC50) of 6320 nM and an IC (TGI) ([4]; read-out: IGROV TGI) of 272 nM. The GI50 [5] was 439 nM, the CC50 [5] was 13100 nM and the “SK-OV3 TGI” value [5] was 4.86E−06 Molar. For the same compound, the GI50 ([6]; read-out: LNCAP GI50) was 43.5 nM, the CC50 ([6]; read-out: LNCAP LC50) was 118 nM and the IC (TGI) ([6]; read-out: LNCAP TGI) was 71 nM. For the same compound, the GI50 ([7]; read-out: LOVO-DOX GI50) was 929 nM, the CC50 ([7]; read-out: LOVO-DOX LC50) was 13100 nM and the IC (TGI) ([7]; read-out: LOVO-DOX TGI) was 5660 nM. For the same compound, the GI50 ([8]; read-out: IGROV-ET GI50) was 652 nM, the CC50 ([8]; read-out: IGROV-ET LC50) was 13100 nM and the IC (TGI) ([8]; read-out: IGROV-ET TGI) was 1700 nM. It also gave a GI50 ([9]; read-out: PANC-1 GI50) of 418 nM, a CC50 ([9]; read-out: PANC-1 LC50) of 13100 nM and an IC (TGI) ([9]; read-out: PANC-1 TGI) of 2720 nM. It also gave a GI50 ([10]; read-out: DU145 GI50) of 301 nM, a CC50 ([10]; read-out: DU145 LC50) of 13100 nM and an IC (TGI) ([10]; read-out: DU145 TGI) of 1160 nM. The GI50 ([11]; read-out: K562 GI50) was 16.6 nM, the CC50 ([11]; read-out: K562 LC50) was 13100 nM and the IC (TGI) ([11]; read-out: K562 TGI) was 101 nM. The GI50 ([12]; read-out: MEL-28 GI50) was 63.1 nM, the CC50 ([12]; read-out: MEL-28 LC50) was 756 nM and the IC (TGI) ([12]; read-out: MEL-28 TGI) was 175 nM.
With `C=CCOc1c(C)c2c(c3c1CC1[C@H]4c5c(cc(C)c(OC)c5O)C[C@@H]([C@H](C#N)N1[C@H]3CO)N4C)OCO2` (stereo partly drawn) [compound 2] the GI50 ([1]; read-out: GI50 LOVO) was 533 nM, the CC50 ([1]; read-out: LC50 LOVO) was 1920 nM and the IC (TGI) ([1]; read-out: TGI LOVO) was 1070 nM. It also gave a GI50 ([2]; read-out: GI50 A549) of 633 nM, a CC50 ([2]; read-out: LC50 A549) of 9110 nM and an IC (TGI) ([2]; read-out: TGI A549) of 1390 nM. For the same compound, the GI50 ([3]; read-out: GI50 HT29) was 1060 nM, the CC50 ([3]; read-out: LC50 HT29) was 19200 nM and the IC (TGI) ([3]; read-out: TGI HT29) was 14200 nM. The GI50 ([13]; read-out: GI50 HELA) was 763 nM, the CC50 ([13]; read-out: LC50 HELA) was 9800 nM and the IC (TGI) ([13]; read-out: TGI HELA) was 1450 nM. For the same compound, the GI50 ([4]; read-out: GI50 IGROV) was 926 nM, the CC50 ([4]; read-out: LC50 IGROV) was 18200 nM and the IC (TGI) ([4]; read-out: TGI IGROV) was 2260 nM. For the same compound, the GI50 ([14]; read-out: GI50 HELA-APL) was 479 nM, the CC50 ([14]; read-out: LC50 HELA-APL) was 1490 nM and the IC (TGI) ([14]; read-out: TGI HELA-APL) was 844 nM. The GI50 ([6]; read-out: GI50 LNCAP) was 592 nM, the CC50 ([6]; read-out: LC50 LNCAP) was 2760 nM and the IC (TGI) ([6]; read-out: TGI LNCAP) was 1110 nM. For the same compound, the GI50 ([7]; read-out: GI50 LOVO-DOX) was 924 nM, the CC50 ([7]; read-out: LC50 LOVO-DOX) was 19200 nM and the IC (TGI) ([7]; read-out: TGI LOVO-DOX) was 19200 nM. It also gave a GI50 ([8]; read-out: GI50 IGROV-ET) of 1060 nM, a CC50 ([8]; read-out: LC50 IGROV-ET) of 19200 nM and an IC (TGI) ([8]; read-out: TGI IGROV-ET) of 19200 nM. It also gave a GI50 ([15]; read-out: GI50 SK-BR3) of 778 nM, a CC50 ([15]; read-out: LC50 SK-BR3) of 19200 nM and an IC (TGI) ([15]; read-out: TGI SK-BR3) of 1750 nM. It also gave a GI50 ([9]; read-out: GI50 PANC-1) of 890 nM, a CC50 ([9]; read-out: LC50 PANC-1) of 19200 nM and an IC (TGI) ([9]; read-out: TGI PANC-1) of 3260 nM. It also gave a GI50 ([10]; read-out: GI50 DU145) of 897 nM, a CC50 ([10]; read-out: LC50 DU145) of 19200 nM and an IC (TGI) ([10]; read-out: TGI DU145) of 3130 nM. For the same compound, the GI50 ([11]; read-out: GI50 K562) was 516 nM, the CC50 ([11]; read-out: LC50 K562) was 4790 nM and the IC (TGI) ([11]; read-out: TGI K562) was 1220 nM. The GI50 ([12]; read-out: GI50 MEL-28) was 598 nM, the CC50 ([12]; read-out: LC50 MEL-28) was 5310 nM and the IC (TGI) ([12]; read-out: TGI MEL-28) was 1270 nM.
